The supplement of paper PMC11061612

Legend:
Experiment in all cases: combination Emax (second highest fraction inhibited in the dose matrix, 72 h); higher = more inhibition; extreme values may be limits of the assay
[1] = system: U-2-OS (Osteosarcoma)
Method in brief: (§1)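 After 24 hours at 37°C and 5% CO2 in 1536-well plates, cells in DMEM/F12 or RPMI plus 10% FBS received two-drug dose matrices for 72 hours. Viability came from CellTiter-Glo 2.0 luminescence and was scaled as inhibition, anchored at 0 by vehicle wells and at 1 by blank wells. Combination Emax is taken as the second-highest inhibition in the matrix, and Bliss excess as the observed combination effect less EA + EB − EA·EB, with EA and EB the single-agent effects.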

[2] = system: NCI-H1693 (Lung Adenocarcinoma)
Method in brief: as §1

[3] = system: CAPAN-2 (Pancreatic Carcinoma)
Method in brief: as §1

[4] = system: NCI-H2066 (Squamous Cell Lung Carcinoma)
Method in brief: as §1

[5] = system: MDST8 (Colorectal Carcinoma)
Method in brief: as §1

[6] = system: GI-ME-N (Neuroblastoma)
Method in brief: as §1

[7] = system: NCI-H1650 (Lung Adenocarcinoma)
Method in brief: as §1

[8] = system: OS-RC-2 (Kidney Carcinoma)
Method in brief: as §1

[9] = system: COLO-320-HSR (Colorectal Carcinoma)
Method in brief: as §1

[10] = system: KARPAS-422 (B-Cell Non-Hodgkin's Lymphoma)
Method in brief: as §1

[11] = system: NCI-H2591 (Mesothelioma)
Method in brief: as §1

[12] = system: VCaP (Prostate Carcinoma)
Method in brief: as §1

[13] = system: CAS-1 (Glioblastoma)
Method in brief: as §1

[14] = system: ONS-76 (Other Solid Carcinomas)
Method in brief: as §1

[15] = system: BICR22 (Oral Cavity Carcinoma)
Method in brief: as §1

[16] = system: SK-MG-1 (Low Grade Glioma)
Method in brief: as §1

[17] = system: FU97 (Gastric Carcinoma)
Method in brief: as §1

[18] = system: SISO (Cervical Carcinoma)
Method in brief: as §1

[19] = system: NCI-H2141 (Small Cell Lung Carcinoma)
Method in brief: as §1

[20] = system: TT2609-C02 (Thyroid Gland Carcinoma)
Method in brief: as §1

| Compound | combination Emax [1] | combination Emax [2] | combination Emax [3] | combination Emax [4] | combination Emax [5] | combination Emax [6] | combination Emax [7] | combination Emax [8] | combination Emax [9] | combination Emax [10] | combination Emax [11] | combination Emax [12] | combination Emax [13] | combination Emax [14] | combination Emax [15] | combination Emax [16] | combination Emax [17] | combination Emax [18] | combination Emax [19] | combination Emax [20] |
| --- | --- | --- | --- | --- | --- | --- | --- | --- | --- | --- | --- | --- | --- | --- | --- | --- | --- | --- | --- | --- |
| CC1(C)CCC(CN2CCN(c3ccc(C(=O)NS(=O)(=O)c4ccc(NCC5CCOCC5)c([N+](=O)[O-])c4)c(Oc4cnc5[nH]ccc5c4)c3)CC2)=C(c2ccc(Cl)cc2)C1 [Venetoclax] + C[C@@H](Nc1cc(F)cc(F)c1)c1cc(C(=O)N(C)C)cc2c(=O)cc(N3CCOCC3)oc12 [AZD8186] (first compound max 1 µM, 7x7, partner max 3 µM) | 0.139 | 0.129 | 0.194 | 0.215 | 0.0955 | 0.165 | 0.255 | 0.375 | 0.135 | 0.98 | 0.118 | 0.188 | 0.399 | 0.746 | 0.15 | 0.387 | 0.329 | 0.11 | 0.361 | 0.162 |
| CC1(C)CCC(CN2CCN(c3ccc(C(=O)NS(=O)(=O)c4ccc(NCC5CCOCC5)c([N+](=O)[O-])c4)c(Oc4cnc5[nH]ccc5c4)c3)CC2)=C(c2ccc(Cl)cc2)C1 [Venetoclax] + Cc1cc2ncnn2cc1Nc1ncc2c(n1)n(C1CCOCC1)c(=O)n2C [AZD7648] (first compound max 1 µM, 7x7, partner max 10 µM) | 0.206 | 0.26 | 0.219 | 0.273 | 0.245 | 0.186 | 0.108 | 0.274 | 0.174 | 0.897 | 0.315 | 0.293 | 0.279 | 0.764 | 0.291 | 0.28 | 0.494 | 0.164 | 0.178 | 0.341 |
| CC1(C)CCC(CN2CCN(c3ccc(C(=O)NS(=O)(=O)c4ccc(NCC5CCOCC5)c([N+](=O)[O-])c4)c(Oc4cnc5[nH]ccc5c4)c3)CC2)=C(c2ccc(Cl)cc2)C1 [Venetoclax] + Cn1cnc2c(F)c(Nc3ccc(Br)cc3Cl)c(C(=O)NOCCO)cc21 [Selumetinib] (first compound max 1 µM, 7x7, partner max 3 µM) | 0.169 | 0.26 | 0.364 | 0.191 | 0.646 | 0.24 | 0.0531 | 0.169 | 0.083 | 0.793 | 0.171 | 0.143 | 0.158 | 0.536 | 0.141 | 0.185 | 0.314 | 0.196 | 0.159 | 0.55 |
